Experimental data from publication PMC6796961, “Bioinformatic and biochemical analysis of the key binding sites of the pheromone binding protein of Cyrtotrachelus buqueti Guerin-Meneville (Coleoptera: Curculionidea)” (PeerJ, 2019).

Legend:
Type in all cases: binding
[1] = molecular target: T1, CbuqPBP1 (Cyrtotrachelus buqueti, UniProt A0A1B3IIF7, F69A); assay: competitive displacement of 1-NPN fluorescence
T1 construct: E. coli BL21(DE3), pET-28a(+); His-tag cut with enterokinase; about 400 bp insert, 16 kDa
T1 sequence (A0A1B3IIF7 17-143 F69A): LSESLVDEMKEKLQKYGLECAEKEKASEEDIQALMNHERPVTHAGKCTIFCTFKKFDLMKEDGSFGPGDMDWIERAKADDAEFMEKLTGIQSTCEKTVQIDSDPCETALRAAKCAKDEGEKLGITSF
From the text: (§1) competitive displacement of 1-NPN fluorescence on CbuqPBP1

[2] = molecular target: T2, CbuqPBP1 (Cyrtotrachelus buqueti, UniProt A0A1B3IIF7); assay: competitive displacement of 1-NPN fluorescence; conditions: for IC50: read-out: IC50 (μM) / PBP1; for Ki: read-out: Ki (μM) / PBP1
T2 construct: E. coli BL21(DE3), pET-28a(+); His-tag cut with enterokinase; about 400 bp insert, 16 kDa
T2 sequence (A0A1B3IIF7 17-143): T1 sequence (A0A1B3IIF7 17-143 F69A)
From the text: as §1

[3] = molecular target: T2, CbuqPBP1; assay: fluorescence titration, Scatchard plot
[4] = molecular target: T3, CbuqPBP1 (Cyrtotrachelus buqueti, UniProt A0A1B3IIF7, H53A); assay: fluorescence titration, Scatchard plot
T3 construct: E. coli BL21(DE3), pET-28a(+); His-tag cut with enterokinase; about 400 bp insert, 16 kDa
T3 sequence (A0A1B3IIF7 17-143 H53A): T1 sequence (A0A1B3IIF7 17-143 F69A)

[5] = molecular target: T1, CbuqPBP1; assay: fluorescence titration, Scatchard plot

SMILES | IC50 [1] [µM] | Ki [1] [µM] | IC50 [2] [µM] | Ki [2] [µM] | Kd [3] [µM] | Kd [4] [µM] | Kd [5] [µM]
c1ccc2scnc2c1 [benzothiazole] | 10.5 | 7.3 | 13.4 | 9.82 | – | – | –
C[C@@H]1CC[C@H]2C(C)(C)[C@H]3C[C@@]12CC[C@@]3(C)O [cedrol] | – | – | 30 | 21.9 | – | – | –
CCCCOC(=O)c1ccccc1C(=O)OCCCC [dibutyl phthalate] | 20 | 13.9 | – | – | – | – | –
c1ccc(Nc2cccc3ccccc23)cc1 [1-NPN] | – | – | – | – | 2.73 | 3.35 | 2.26
